Assay results taken from patent publication US20080214606A1, “Methods for the Identification and Use of Compounds Suitable for the Treatment of Drug Resistant Cancer Cells” (The Government of the United States of America as …, priority 2004, published 2008).
Read-outs that look alike come from different tables or passages of the source.

Molecular target: ABCB1 (Homo sapiens, UniProt P08183)
Assay: Correlation of ABCB1 expression with drug sensitivity across the NCI-60
Protocol: Expression levels are measured by real-time quantitative RT-PCR using the LightCycler RNA Amplification SYBR Green kit and a LightCycler machine (Roche Biochemicals, Indianapolis, Ind.). Specific oligonucleotide probes are designed for each of the ABC transporters using DNAStar Primer Select (DNASTAR Inc.), and they may be synthesized at Lofstrand Laboratories (Gaithersburg, Md.). When possible, the amplicons are designed to encompass exon-intron boundaries to avoid amplification of genomic DNA. Since the Syber Green assay detects accumulation of double stranded DNA, primers are selected (from a battery consisting of about 200 primers) that amplified a single product of the correct size.
RT-PCR is carried out on 150 ng total RNA, in the presence of 250 nM specific primers. Following reverse transcription (20 min at 50° C.), the PCR reaction consists of 45 cycles of denaturation (15 sec at 95° C.), annealing (30 sec at 58° C.), and elongation (30 sec at 72° C.). No-template (water) reaction mixtures are prepared as negative controls.
During PCR amplification, fluorescence emission is measured and recorded in real time by the LightCycler. Crossing point values are calculated, using the LightCycler software package, by the Fit Points analysis method, with baseline fluorescence set at 1. The SyberGreen assay measures accumulation of double-stranded products, and the appearance of primer dimers limits quantitation at high cycle numbers. […] The raw results are expressed as number of cycles to reach the crossing point. If the desired product is not detected, the corresponding value is adjusted to crossing points indicating no expression. To assess the contribution of experimental artifacts, selected cell lines are assessed in replicate.
Both sets are available at http://discover.nci.nih.gov. The two are combined to form a joint dataset that includes 1429 compounds.
To determine quantitatively how well the 47 genes cluster the cell lines by their tissues of origin, a statistical method is employed wherein the kappa statistic is used to indicate how well the observed clusters correspond to the nine tissue-of-origin classifications. […] To control the overall false type 1 error rate, both a step-down procedure (Westfall and Young, 1993, Resampling-Based Multiple Testing: Examples and Methods for p-value Adjustment (New York: Wiley)) and a step-up procedure (Reiner et al., 2003, Bioinformatics 19:368-375) were employed to adjust for multiple testing of all 47 genes simultaneously. In the Benjamini-Hochberg procedure the p-values are computed in the standard way by permutation, assuming that all distributions are exchangeable: the number of values in the permuted data with correlations over a threshold, divided by the number of compounds and by the number of permutations. In this analysis, the False Discovery Rate (q-value) at which each compound would be declared was calculated using the step-up procedure for positively correlated test statistics (again true because all correlations being compared are computed against the same ABC gene): in this procedure the first q-value for the largest correlation is the Bonferroni-corrected p-value for that gene; then further q-values are calculated as qj=max(pj*1429/j, qj-1). This procedure limits the expected proportion of false positives in the list 1, . . . , j to at most qj.

Chain of ABCB1 (P08183 whole entry): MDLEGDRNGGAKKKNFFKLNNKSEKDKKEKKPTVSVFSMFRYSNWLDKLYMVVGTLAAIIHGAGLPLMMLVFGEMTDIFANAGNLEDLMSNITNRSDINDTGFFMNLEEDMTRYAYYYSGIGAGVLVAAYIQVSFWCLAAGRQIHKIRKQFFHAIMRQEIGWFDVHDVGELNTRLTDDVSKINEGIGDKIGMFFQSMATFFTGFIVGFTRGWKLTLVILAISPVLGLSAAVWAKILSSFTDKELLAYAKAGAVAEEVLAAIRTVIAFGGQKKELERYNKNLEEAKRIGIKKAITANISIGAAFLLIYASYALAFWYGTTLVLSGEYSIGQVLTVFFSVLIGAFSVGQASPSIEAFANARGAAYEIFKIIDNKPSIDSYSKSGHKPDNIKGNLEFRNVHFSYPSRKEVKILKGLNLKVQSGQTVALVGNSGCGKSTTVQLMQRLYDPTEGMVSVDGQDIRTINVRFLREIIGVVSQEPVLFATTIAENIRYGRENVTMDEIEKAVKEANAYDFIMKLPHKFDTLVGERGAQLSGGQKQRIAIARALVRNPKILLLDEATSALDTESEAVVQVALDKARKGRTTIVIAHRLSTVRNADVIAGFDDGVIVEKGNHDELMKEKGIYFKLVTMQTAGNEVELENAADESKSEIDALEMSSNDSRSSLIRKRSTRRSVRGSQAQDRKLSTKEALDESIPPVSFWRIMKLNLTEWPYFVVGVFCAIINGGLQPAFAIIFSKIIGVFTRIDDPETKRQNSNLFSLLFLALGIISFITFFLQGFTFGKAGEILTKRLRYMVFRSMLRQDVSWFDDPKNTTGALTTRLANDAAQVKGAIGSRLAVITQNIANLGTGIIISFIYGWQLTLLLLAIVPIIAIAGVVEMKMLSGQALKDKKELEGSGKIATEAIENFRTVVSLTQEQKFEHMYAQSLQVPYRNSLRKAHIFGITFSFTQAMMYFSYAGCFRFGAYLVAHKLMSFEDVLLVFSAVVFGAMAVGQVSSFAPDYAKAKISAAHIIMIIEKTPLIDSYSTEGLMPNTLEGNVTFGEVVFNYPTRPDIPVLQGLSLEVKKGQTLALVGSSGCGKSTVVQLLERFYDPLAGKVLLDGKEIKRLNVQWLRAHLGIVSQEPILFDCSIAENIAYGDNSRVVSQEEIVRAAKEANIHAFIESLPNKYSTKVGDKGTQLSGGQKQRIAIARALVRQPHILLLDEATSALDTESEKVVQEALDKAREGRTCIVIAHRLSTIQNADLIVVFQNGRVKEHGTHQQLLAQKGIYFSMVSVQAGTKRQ

SMILES	Pearson's Correlation Coeff	Correlation of antiproliferative activity with ABCB1 expression	other results
CC[C@]1(O)C[C@@H]2CN(CCc3c([nH]c4ccccc34)[C@@](C(=O)OC)(c3cc4c(cc3OC)N(C)[C@H]3[C@@](O)(C(=O)OC)[C@H](OC(C)=O)[C@]5(CC)C=CCN6CC[C@]43[C@@H]65)C2)C1 [vinblastine, reference compound]			Relationship between drug sensitivity and ABCB1 expression (in words): striking inverse correlations
Cc1cc(N(CCOS(C)(=O)=O)CCOS(C)(=O)=O)ccc1C=Nc1ccc(-c2nc(Cc3ccccc3)sc2C)cc1 [NSC281817]	0.2646		
C=C1C(=O)O[C@@H]2C[C@H]1CC[C@]1(C)O[C@H]1CC/C(C)=C/CC[C@]2(C)O [NSC285706]	0.3654		
c1cc(-c2cn3ccsc3n2)ccn1 [NSC 641288]		0.3643	
CS(C)=O.[Cl][Pt][Cl].c1ccc2ncccc2c1 [NSC632790]	0.2677		
COc1ccc2oc(S(=O)(=O)N3CC(CCl)c4ccc([N+](=O)[O-])cc43)cc2c1 (centres unmarked) [NSC696992]	0.2171		
O=C(NO)c1cccc(OCc2ccc(Br)cc2)c1 [NSC692756]	0.4093		
CC(=O)O[C@H]1C#C/C=C\C#CC[C@@H]2C(=O)N(C(=O)OC(C)(C)C)[C@@H]12 [NSC697686]	0.2297		
C(=N\NC1=NCCN1)/c1c2ccccc2c(/C=N/NC2=NCCN2)c2ccccc12 [bisantrene, reference compound]			Relationship between drug sensitivity and ABCB1 expression (in words) (set of 118 compounds with putatively known mechanisms of action, FIG. 2): striking inverse correlations
CCOc1cc2c(cc1O)C(=O)C[C@@H]1[C@@H]2CC[C@]2(C)[C@@H](O)CC[C@@H]12 [NSC679431]	0.2672		
S=C(N/N=C\C=N/NC(=S)N1CCCCC1)N1CCCCC1 [NSC693323]	0.3180		
Br.CCN(CC)CC[n+]1ccc2c(C)c3[nH]c4ccccc4c3c(C)c2c1.[Br-] [NSC 353076]			Correlation: −0.7983
O=C1c2c(nc3ccccc3c2-c2ccccc2)CN1Nc1ccccn1 [NSC 648072]		0.3579	
Cc1ccc2c(c1)-c1c(C#N)c(N)nc(-c3ccc(Cl)cc3)c1CCS2(=O)=O [NSC691578]	0.2102		
O=C(CCc1nnc2s/c(=C\c3ccc4c(c3)OCO4)c(=O)n12)Nc1cc(Cl)ccc1Cl [NSC 635543]		0.3514	
Nc1ncnc2c1nc(Cl)n2[C@@H]1O[C@@H]2COP(=O)(O)O[C@H]2[C@H]1O [NSC284751]	0.2759		
CC(C)=CCC[C@@H](C)C1=C(O)C(Nc2ccccc2Cl)=C(C)C(=O)C1=O [NSC 697132]		0.3558	
CCC1=NC(N/N=C/c2ccccc2O)=N/C1=C\c1ccccc1O [NSC 697678]		0.4314	
O=[Se](=O)c1ccccc1.O=[Se](=O)c1ccccc1.[Cu] [NSC 626670]		0.4177	
CCNc1nnc(-c2ccccc2Nc2ccccc2-c2nnc(NCC)s2)s1 [NSC698459]	0.3095		
N#Cc1c(N2CCN(c3ccc([N+](=O)[O-])cc3)CC2)[n+](=O)c2ccc(Cl)cc2n1[O-] [NSC688493]	0.2012		
COc1cccc2c1C(=O)c1c(O)c3c(c(O)c1C2=O)C[C@@](O)(C(C)=O)C[C@@H]3OC1CC(N(Cc2ccccc2)Cc2ccccc2)C(O)C(C)O1.Cl (some centres unmarked) [NSC268242]	0.2268		
O=C1Sc2sc(=S)sc2SC1c1ccccc1 (centres unmarked) [NSC 627452]		0.3534	
C=C(C=O)c1c2c(nc3ccccc13)C(=O)c1ccccc1C2=O [NSC694489]	0.3742		
Cl.Oc1c(CN2CCCC2)ccc2cccnc12 [NSC693871]	0.6160	0.6811	

SMILES	Pearson's Correlation Coeff	Correlation of antiproliferative activity with ABCB1 expression	other results
NC(=O)NO [hydroxyurea, reference compound]			Relationship between drug sensitivity and ABCB1 expression (in words): non-correlated or positively correlated
C[N+]1(C)C/C(=C\C=C\c2ccccc2)C(=O)/C(=C/C=C/c2ccccc2)C1.[I-] [NSC 636679]			Correlation: −0.5530
O=C(O)Cc1cccc2c(=O)cc(-c3ccccc3)oc12 [NSC 347512]		0.4109	
CC(C)=CCC[C@@H](C)C1=C(O)C(=O)C(C)=C(N)C1=O [NSC697125]	0.5604	0.5358	
CC[C@]12C=CCN3CCC4(c5cc([C@@]6(C(=O)OC)CC7CN(CCc8c6[nH]c6ccccc86)C[C@@H]6CCC[C@H]76)c(OC)cc5N(C)C4[C@](O)(C(=O)OC)C1OC(C)=O)C32.COS(=O)(=O)O (some centres unmarked) [NSC 651727]			Correlation: −0.3910
COc1ccc2cc(CNCCCCCCCCNCc3ccc4cc(OC)ccc4c3)ccc2c1 [NSC676427]	0.1843		
[N-]=[N+]=CC(=O)OC1Cc2ccccc2C1 [NSC 679285]		0.3504	
CC(C)=CCC[C@@H](C)C1=C(O)C(Nc2ccccc2)=C(C)C(=O)C1=O [NSC697129]	0.4854	0.4663	
COc1cc(/C=C2\CCC/C(=C\c3ccc(O)c(OC)c3)C2=O)ccc1O [NSC652893]	0.2821		
CCN(CC)CC[n+]1ccc2c(C)c3[nH]c4ccccc4c3c(C)c2c1 [NSC 359449]			Correlation: −0.7108
CN(Cc1cnc2nc(N)nc(N)c2n1)c1ccc(C(=O)N[C@@H](CCC(=O)O)C(=O)O)c2ccccc12 [NSC174121]	0.2662		
CC(C)=CCCC(C)c1c(O)c(O)c(C)c2nc3ccccc3nc12 (centres unmarked) [NSC697120]	0.4167	0.4435	
CCc1nc(N)nc(N)c1-c1ccc([N+](=O)[O-])c(Cl)c1 [NSC602313]	0.3012		
CSc1nc2nn(Cc3ccccc3)cc2c(=O)[nH]1 [NSC 622927]		0.4001	
O=C1C=CC(=O)c2c(O)ccc(O)c21 [NSC26647]	0.2476		
COc1cc2c(c(O)c1O)-c1ccc(OC)c(=O)cc1C(NC(C)=O)CC2 (centres unmarked) [NSC 354975]			Correlation: −0.6043
CC(=O)O[C@H]1C(=O)[C@@]2(C)[C@H]([C@H](OC(=O)c3ccccc3)[C@]3(O)C[C@H](OC(=O)[C@H](O)[C@@H](NC(=O)c4ccccc4)c4ccccc4)C(C)=C1C3(C)C)[C@]1(OC(C)=O)CO[C@@H]1C[C@@H]2O [paclitaxel, reference compound]			Relationship between drug sensitivity and ABCB1 expression (in words): striking inverse correlations
CN(Cc1cnc2nc(N)nc(N)c2n1)c1ccc(C(=O)N[C@@H](CCC(=O)O)C(=O)O)cc1 [methotrexate, reference compound]			Relationship between drug sensitivity and ABCB1 expression (in words): non-correlated or positively correlated
COc1c(OC(C)=O)c(OC(C)=O)cc2c1-c1ccc(SC)c(=O)cc1C(NC(C)=O)CC2 (centres unmarked) [NSC 374980]			Correlation: −0.5590
COc1ccc2oc(S(=O)(=O)N3CC(CCl)c4ccc(N)cc43)cc2c1 (centres unmarked) [NSC696124]	0.2104		
COC(=O)CN(CC(O)C(NC(C)=O)C(O)C=O)C(=O)OCc1ccccc1 (centres unmarked) [NSC 693931]		0.3708	
CCCOc1ccc(-c2nc(-c3ccc(N=Cc4ccc(N(CCOS(C)(=O)=O)CCOS(C)(=O)=O)cc4C)cc3)cs2)cc1 [NSC281818]	0.2476		
COc1ccc(O)c(/C=N/NC(=S)N2CCCCC2)c1 [NSC689529]	0.3465		
CCCOc1cc2c(cc1O)CC[C@@H]1[C@@H]2CC[C@]2(C)[C@@H](O)CC[C@@H]12 [NSC671041]	0.2610		
